{"source": "patent US8951756B2", "about": "“Alkaline feed” (Hoffmann-La Roche Inc., priority 2010, dated 2015)", "key": {"physchem [1]": {"experiment": "physchem", "settings": "water"}, "[2]": {"settings": "at 20 °C; cited from earlier work"}, "[3]": {"experiment": "Determination of solubility of Leucine in an ammonia solution", "settings": "for soluble: 250 ml water + 250 ml 25% (w/v) ammonia solution", "description": "(§1) The calculated amount of Leucine was weighted into a 500 ml flask. After addition of 250 ml deionized water the solution is sterilized by autoclavation. Thereafter 250 ml of a 25% (w/v) ammonia solution is added and determined whether the Leucine was dissolved or not. After dissolution of the Leucine the final volume of the solution was determined."}, "physchem [4]": {"experiment": "physchem", "settings": "aqueous buffer, thermodynamic from solid", "description": "as §1"}}, "data": [{"smiles": "N[C@@H](Cc1c[nH]cn1)C(=O)O", "note": "[histidine]", "values": [{"measurement": "solubility", "setting": "physchem [1]; 20 °C", "value": "< 50", "unit": "mg/mL"}]}, {"smiles": "N[C@@H](Cc1c[nH]c2ccccc12)C(=O)O", "note": "[tryptophane]", "values": [{"measurement": "solubility", "setting": "physchem [1]; 20 °C", "value": "< 50", "unit": "mg/mL"}, {"measurement": "solubility in water", "setting": "[2]", "value": 10, "unit": "mg/mL"}]}, {"smiles": "CC(C)[C@H](N)C(=O)O", "note": "[valine]", "values": [{"measurement": "solubility in water", "setting": "[2]", "value": 88, "unit": "mg/mL"}]}, {"smiles": "NC(=O)CC[C@H](N)C(=O)O", "note": "[glutamine]", "values": [{"measurement": "solubility", "setting": "physchem [1]; 18 °C", "value": "< 50", "unit": "mg/mL"}]}, {"smiles": "CSCC[C@H](N)C(=O)O", "note": "[methionine]", "values": [{"measurement": "solubility", "setting": "physchem [1]; 20 °C", "value": "< 50", "unit": "mg/mL"}]}, {"smiles": "N[C@@H](Cc1ccccc1)C(=O)O", "note": "[phenylalanine]", "values": [{"measurement": "solubility", "setting": "physchem [1]; 20 °C", "value": "< 50", "unit": "mg/mL"}]}, {"smiles": "CC(C)C[C@H](N)C(=O)O", "note": "[leucine]", "values": [{"measurement": "solubility", "setting": "physchem [1]; 20 °C", "value": "< 50", "unit": "mg/mL"}, {"measurement": "solubility in alkaline solution relative to solubility in water", "setting": "[3]; 12.5% (w/v) ammonia versus water at 20 °C", "value": "more than three times"}, {"measurement": "soluble", "setting": "[3]; Leucine concentration 17 g/l", "value": "yes"}, {"measurement": "soluble", "setting": "[3]; Leucine concentration 18 g/l", "value": "yes"}, {"measurement": "soluble", "setting": "[3]; Leucine concentration 19 g/l", "value": "yes"}, {"measurement": "soluble", "setting": "[3]; Leucine concentration 20 g/l", "value": "yes"}, {"measurement": "soluble", "setting": "[3]; Leucine concentration 21 g/l", "value": "yes"}, {"measurement": "soluble", "setting": "[3]; Leucine concentration 25 g/l", "value": "yes"}, {"measurement": "soluble", "setting": "[3]; Leucine concentration 30 g/l", "value": "yes"}, {"measurement": "soluble", "setting": "[3]; Leucine concentration 40 g/l", "value": "yes"}, {"measurement": "soluble", "setting": "[3]; Leucine concentration 50 g/l", "value": "yes"}, {"measurement": "soluble", "setting": "[3]; Leucine concentration 60 g/l", "value": "yes"}, {"measurement": "soluble", "setting": "[3]; Leucine concentration 70 g/l", "value": "yes"}, {"measurement": "soluble", "setting": "[3]; Leucine concentration 71 g/l", "value": "yes"}, {"measurement": "soluble", "setting": "[3]; Leucine concentration 72 g/l", "value": "yes"}, {"measurement": "soluble", "setting": "[3]; Leucine concentration 73 g/l", "value": "yes"}, {"measurement": "soluble", "setting": "[3]; Leucine concentration 74 g/l", "value": "yes"}, {"measurement": "soluble", "setting": "[3]; Leucine concentration 75 g/l", "value": "yes"}, {"measurement": "soluble", "setting": "[3]; Leucine concentration 76 g/l", "value": "yes"}, {"measurement": "soluble", "setting": "[3]; Leucine concentration 77 g/l", "value": "no"}, {"measurement": "solubility", "setting": "physchem [4]", "value": 76, "unit": "mg/mL"}]}, {"smiles": "CC[C@H](C)[C@H](N)C(=O)O", "note": "[isoleucine]", "values": [{"measurement": "solubility", "setting": "physchem [1]; 20 °C", "value": "< 50", "unit": "mg/mL"}, {"measurement": "solubility in water", "setting": "[2]", "value": 40, "unit": "mg/mL"}]}]}
